Assay results taken from ChEMBL document CHEMBL4507273 (2021).

How the values were obtained:
[1] = target: Serine/threonine-protein kinase Nek6 (Homo sapiens) (UniProt Q9HC98); conditions: Compound concentration 1000.0 nM
[2] = target: Sodium-dependent noradrenaline transporter (Homo sapiens, UniProt P23975); assay: GPCRScan assay: inhibition of NET; set-up: radioligand conc. used [nm] 1.3 – 5.0, parental cells stable HEK
[3] = target: Testis-specific serine/threonine-protein kinase 3 (Homo sapiens) (UniProt Q96PN8); conditions: Compound concentration 1000.0 nM
[4] = target: Son of sevenless homolog 2 (Homo sapiens, UniProt Q07890, G12C)
[5] = target: Protein kinase C eta type (Homo sapiens) (UniProt P24723); conditions: Compound concentration 1000.0 nM
[6] = target: G protein-coupled receptor kinase 4 (Homo sapiens) (UniProt P32298); conditions: Compound concentration 1000.0 nM
[7] = target: Histamine H3 receptor (Homo sapiens) (UniProt Q9Y5N1); conditions: Compound concentration 10.0 uM
[8] = target: Serine/threonine-protein kinase WNK2 (Homo sapiens) (UniProt Q9Y3S1); conditions: Compound concentration 1000.0 nM
[9] = target: Alpha-1B adrenergic receptor (Homo sapiens) (UniProt P35368); conditions: Compound concentration 10.0 uM
[10] = target: Serine/threonine-protein kinase pim-1 (Homo sapiens) (UniProt P11309); conditions: Compound concentration 1000.0 nM
[11] = target: Atypical kinase COQ8A, mitochondrial (Homo sapiens) (UniProt Q8NI60); conditions: Compound concentration 1000.0 nM
[12] = target: Tyrosine-protein kinase HCK (Homo sapiens) (UniProt P08631); conditions: Compound concentration 1000.0 nM
[13] = tested on: Phosphatidylinositol 4,5-bisphosphate 3-kinase catalytic subunit alpha isoform (Homo sapiens), P42336 [M1043I]; conditions: Compound concentration 1000.0 nM
[14] = target: T1, Alpha-2A adrenergic receptor (Homo sapiens) (UniProt P08913); conditions: Compound concentration 10.0 uM
T1 sequence (whole entry): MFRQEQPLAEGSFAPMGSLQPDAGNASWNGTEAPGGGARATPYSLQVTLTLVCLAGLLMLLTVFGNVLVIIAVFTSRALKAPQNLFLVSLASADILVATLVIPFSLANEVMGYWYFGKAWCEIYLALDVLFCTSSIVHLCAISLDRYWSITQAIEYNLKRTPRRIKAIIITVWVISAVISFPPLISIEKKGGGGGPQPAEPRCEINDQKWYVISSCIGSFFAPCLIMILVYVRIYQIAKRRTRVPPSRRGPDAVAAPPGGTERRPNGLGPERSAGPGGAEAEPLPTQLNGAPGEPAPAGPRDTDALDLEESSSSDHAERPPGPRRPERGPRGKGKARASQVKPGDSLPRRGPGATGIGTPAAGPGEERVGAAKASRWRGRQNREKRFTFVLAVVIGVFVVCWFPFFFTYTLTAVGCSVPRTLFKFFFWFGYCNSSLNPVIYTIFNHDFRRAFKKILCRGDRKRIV

[15] = tested on: eIF-2-alpha kinase GCN2 (Homo sapiens), Q9P2K8 [S808G]; conditions: Compound concentration 1000.0 nM
[16] = target: RAC-beta serine/threonine-protein kinase (Homo sapiens) (UniProt P31751); conditions: Compound concentration 1000.0 nM
[17] = target: Ephrin type-A receptor 7 (Homo sapiens) (UniProt Q15375); conditions: Compound concentration 1000.0 nM
[18] = tested on: Tyrosine-protein kinase ABL1 (Homo sapiens), P00519 [F317I]; conditions: Compound concentration 1000.0 nM
[19] = target: Ephrin type-B receptor 1 (Homo sapiens) (UniProt P54762); conditions: Compound concentration 1000.0 nM
[20] = target: Beta-3 adrenergic receptor (Homo sapiens) (UniProt P13945); conditions: Compound concentration 10.0 uM
[21] = target: T2, Alpha-2C adrenergic receptor (Homo sapiens, UniProt P18825); assay: GPCRScan assay: inhibition of Alpha2C; set-up: radioligand conc. used [nm] 0.5 – 1.0, parental cells stable MDCK
T2 sequence (P18825 whole entry): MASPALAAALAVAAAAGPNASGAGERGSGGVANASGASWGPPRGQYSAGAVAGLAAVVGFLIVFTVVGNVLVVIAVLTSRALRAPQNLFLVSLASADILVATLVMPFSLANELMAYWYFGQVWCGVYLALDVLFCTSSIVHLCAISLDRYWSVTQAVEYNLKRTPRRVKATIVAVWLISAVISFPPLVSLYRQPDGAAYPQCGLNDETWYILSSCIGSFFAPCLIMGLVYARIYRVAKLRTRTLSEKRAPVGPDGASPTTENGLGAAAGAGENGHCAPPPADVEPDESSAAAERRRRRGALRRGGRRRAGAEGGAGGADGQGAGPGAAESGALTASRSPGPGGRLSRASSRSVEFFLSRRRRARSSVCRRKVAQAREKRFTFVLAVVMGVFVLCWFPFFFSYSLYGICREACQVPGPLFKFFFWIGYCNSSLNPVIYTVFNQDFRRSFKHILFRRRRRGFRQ

[22] = target: Serine/threonine-protein kinase WNK4 (Homo sapiens) (UniProt Q96J92); conditions: Compound concentration 1000.0 nM
[23] = target: Calcium/calmodulin-dependent protein kinase type II subunit gamma (Homo sapiens) (UniProt Q13555); conditions: Compound concentration 1000.0 nM
[24] = target: Cytoplasmic tyrosine-protein kinase BMX (Homo sapiens) (UniProt P51813); conditions: Compound concentration 1000.0 nM
[25] = target: Mitogen-activated protein kinase kinase kinase 2 (Homo sapiens) (UniProt Q9Y2U5); conditions: Compound concentration 1000.0 nM
[26] = target: Mitogen-activated protein kinase 10 (Homo sapiens) (UniProt P53779); conditions: Compound concentration 1000.0 nM
[27] = target: Serine/threonine-protein kinase DCLK3 (Homo sapiens) (UniProt Q9C098); conditions: Compound concentration 1000.0 nM
[28] = target: Ephrin type-B receptor 6 (Homo sapiens) (UniProt O15197); conditions: Compound concentration 1000.0 nM
[29] = target: D(4) dopamine receptor (Homo sapiens) (UniProt P21917); conditions: Compound concentration 10.0 uM
[30] = target: BDNF/NT-3 growth factors receptor (Homo sapiens) (UniProt Q16620); conditions: Compound concentration 1000.0 nM
[31] = target: Serine/threonine-protein kinase 3 (Homo sapiens) (UniProt Q13188); conditions: Compound concentration 1000.0 nM
[32] = target: Tyrosine-protein kinase TXK (Homo sapiens) (UniProt P42681); conditions: Compound concentration 1000.0 nM

Sequence of Sodium-dependent noradrenaline transporter (P23975 whole entry): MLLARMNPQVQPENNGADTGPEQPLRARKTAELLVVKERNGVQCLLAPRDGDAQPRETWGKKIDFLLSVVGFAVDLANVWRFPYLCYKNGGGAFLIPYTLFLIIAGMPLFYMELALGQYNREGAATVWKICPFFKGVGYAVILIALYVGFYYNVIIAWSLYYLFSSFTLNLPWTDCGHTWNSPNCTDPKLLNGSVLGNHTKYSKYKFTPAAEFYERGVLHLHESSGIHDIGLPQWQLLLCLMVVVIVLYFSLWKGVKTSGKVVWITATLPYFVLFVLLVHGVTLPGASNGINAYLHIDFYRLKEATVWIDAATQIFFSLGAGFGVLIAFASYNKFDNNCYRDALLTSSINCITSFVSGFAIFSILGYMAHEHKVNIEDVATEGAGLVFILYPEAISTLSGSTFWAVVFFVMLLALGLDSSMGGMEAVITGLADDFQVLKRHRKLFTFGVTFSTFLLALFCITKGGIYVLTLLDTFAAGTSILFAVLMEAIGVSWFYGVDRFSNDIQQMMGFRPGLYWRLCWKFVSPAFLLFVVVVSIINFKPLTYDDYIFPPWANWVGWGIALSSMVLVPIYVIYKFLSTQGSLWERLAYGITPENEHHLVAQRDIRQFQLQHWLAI
Sequence of Ephrin type-B receptor 1 (Homo sapiens) (P54762 whole entry): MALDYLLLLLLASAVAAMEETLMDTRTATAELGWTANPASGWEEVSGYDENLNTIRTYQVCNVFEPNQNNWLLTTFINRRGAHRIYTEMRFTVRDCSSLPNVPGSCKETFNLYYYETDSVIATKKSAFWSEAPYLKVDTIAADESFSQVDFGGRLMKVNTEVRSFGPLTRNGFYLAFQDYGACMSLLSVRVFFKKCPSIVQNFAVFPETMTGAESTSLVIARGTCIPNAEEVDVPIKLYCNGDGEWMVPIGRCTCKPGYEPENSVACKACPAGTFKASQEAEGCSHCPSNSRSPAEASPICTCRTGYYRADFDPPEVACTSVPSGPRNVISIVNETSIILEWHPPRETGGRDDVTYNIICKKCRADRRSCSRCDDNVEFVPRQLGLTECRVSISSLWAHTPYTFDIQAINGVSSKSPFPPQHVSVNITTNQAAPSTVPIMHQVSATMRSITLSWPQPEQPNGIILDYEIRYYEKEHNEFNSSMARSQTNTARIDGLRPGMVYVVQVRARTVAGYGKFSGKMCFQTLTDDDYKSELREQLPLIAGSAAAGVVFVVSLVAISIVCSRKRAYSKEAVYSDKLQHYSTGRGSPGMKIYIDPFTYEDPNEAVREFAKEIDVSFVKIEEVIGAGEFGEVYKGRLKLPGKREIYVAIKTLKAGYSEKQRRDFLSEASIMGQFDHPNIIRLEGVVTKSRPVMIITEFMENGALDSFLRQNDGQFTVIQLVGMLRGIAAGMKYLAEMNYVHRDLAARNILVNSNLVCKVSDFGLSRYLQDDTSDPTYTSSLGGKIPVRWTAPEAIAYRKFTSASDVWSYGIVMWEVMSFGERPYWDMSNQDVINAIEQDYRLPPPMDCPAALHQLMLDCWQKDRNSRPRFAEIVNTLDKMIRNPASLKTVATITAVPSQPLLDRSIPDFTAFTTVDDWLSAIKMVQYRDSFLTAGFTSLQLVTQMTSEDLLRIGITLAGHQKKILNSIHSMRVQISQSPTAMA
Sequence of Tyrosine-protein kinase HCK (Homo sapiens) (P08631 2-526 limits assumed): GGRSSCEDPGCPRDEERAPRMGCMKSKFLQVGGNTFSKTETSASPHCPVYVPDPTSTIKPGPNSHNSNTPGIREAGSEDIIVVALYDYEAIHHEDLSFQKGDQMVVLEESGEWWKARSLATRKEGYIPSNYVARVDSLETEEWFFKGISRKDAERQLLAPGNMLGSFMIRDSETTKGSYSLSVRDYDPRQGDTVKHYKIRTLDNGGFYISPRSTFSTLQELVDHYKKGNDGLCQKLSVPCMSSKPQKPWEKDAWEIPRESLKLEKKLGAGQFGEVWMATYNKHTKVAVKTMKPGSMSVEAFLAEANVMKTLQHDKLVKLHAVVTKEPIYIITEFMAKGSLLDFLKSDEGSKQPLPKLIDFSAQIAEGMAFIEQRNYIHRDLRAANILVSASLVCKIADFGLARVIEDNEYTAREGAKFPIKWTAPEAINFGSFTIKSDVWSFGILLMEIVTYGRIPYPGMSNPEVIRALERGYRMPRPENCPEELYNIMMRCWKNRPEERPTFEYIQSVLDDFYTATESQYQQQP
Sequence of Mitogen-activated protein kinase kinase kinase 2 (Homo sapiens) (Q9Y2U5 whole entry): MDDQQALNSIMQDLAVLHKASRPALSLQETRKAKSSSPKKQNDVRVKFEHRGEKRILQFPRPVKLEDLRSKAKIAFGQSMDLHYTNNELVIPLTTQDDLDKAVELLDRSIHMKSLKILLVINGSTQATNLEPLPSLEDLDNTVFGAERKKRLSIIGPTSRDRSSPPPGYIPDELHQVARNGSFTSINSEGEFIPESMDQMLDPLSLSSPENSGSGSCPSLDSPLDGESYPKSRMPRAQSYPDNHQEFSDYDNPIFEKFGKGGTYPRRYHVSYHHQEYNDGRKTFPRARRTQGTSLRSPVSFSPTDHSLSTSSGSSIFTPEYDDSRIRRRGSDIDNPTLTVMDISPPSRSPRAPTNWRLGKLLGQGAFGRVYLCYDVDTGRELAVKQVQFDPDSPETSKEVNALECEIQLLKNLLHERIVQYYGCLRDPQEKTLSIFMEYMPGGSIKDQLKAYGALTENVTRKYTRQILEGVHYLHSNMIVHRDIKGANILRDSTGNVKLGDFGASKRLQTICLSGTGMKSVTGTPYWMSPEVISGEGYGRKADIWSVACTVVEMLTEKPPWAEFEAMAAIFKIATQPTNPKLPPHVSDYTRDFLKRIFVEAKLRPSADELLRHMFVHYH
Sequence of G protein-coupled receptor kinase 4 (Homo sapiens) (P32298 whole entry, looked up): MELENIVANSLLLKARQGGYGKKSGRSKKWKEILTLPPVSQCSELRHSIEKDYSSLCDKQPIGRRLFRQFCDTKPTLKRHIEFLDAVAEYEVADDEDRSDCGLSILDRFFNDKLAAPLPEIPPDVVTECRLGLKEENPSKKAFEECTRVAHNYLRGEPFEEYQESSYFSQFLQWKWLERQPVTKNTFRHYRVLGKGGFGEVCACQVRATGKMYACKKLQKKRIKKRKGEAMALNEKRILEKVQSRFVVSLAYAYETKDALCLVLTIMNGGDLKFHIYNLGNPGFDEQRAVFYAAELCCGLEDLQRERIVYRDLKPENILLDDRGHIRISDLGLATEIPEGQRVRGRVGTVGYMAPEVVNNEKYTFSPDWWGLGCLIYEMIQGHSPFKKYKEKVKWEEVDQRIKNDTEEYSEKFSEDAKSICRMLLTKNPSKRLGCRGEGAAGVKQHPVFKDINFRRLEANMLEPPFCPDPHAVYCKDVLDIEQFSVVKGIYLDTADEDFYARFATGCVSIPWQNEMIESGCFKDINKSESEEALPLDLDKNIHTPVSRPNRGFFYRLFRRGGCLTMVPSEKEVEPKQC
Sequence of Histamine H3 receptor (Homo sapiens) (Q9Y5N1 whole entry): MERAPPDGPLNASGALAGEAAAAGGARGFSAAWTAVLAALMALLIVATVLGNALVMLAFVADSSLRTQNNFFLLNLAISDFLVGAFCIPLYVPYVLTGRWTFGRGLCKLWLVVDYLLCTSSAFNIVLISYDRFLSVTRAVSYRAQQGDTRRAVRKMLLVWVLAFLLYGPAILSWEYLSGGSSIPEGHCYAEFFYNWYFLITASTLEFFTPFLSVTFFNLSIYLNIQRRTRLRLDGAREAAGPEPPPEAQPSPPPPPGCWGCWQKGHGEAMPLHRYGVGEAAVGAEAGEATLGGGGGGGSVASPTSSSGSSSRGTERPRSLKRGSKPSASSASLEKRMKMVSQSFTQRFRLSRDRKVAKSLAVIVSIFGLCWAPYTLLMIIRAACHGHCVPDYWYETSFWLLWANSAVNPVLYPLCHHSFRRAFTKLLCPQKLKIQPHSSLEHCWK
Sequence of Ephrin type-B receptor 6 (Homo sapiens) (O15197 whole entry): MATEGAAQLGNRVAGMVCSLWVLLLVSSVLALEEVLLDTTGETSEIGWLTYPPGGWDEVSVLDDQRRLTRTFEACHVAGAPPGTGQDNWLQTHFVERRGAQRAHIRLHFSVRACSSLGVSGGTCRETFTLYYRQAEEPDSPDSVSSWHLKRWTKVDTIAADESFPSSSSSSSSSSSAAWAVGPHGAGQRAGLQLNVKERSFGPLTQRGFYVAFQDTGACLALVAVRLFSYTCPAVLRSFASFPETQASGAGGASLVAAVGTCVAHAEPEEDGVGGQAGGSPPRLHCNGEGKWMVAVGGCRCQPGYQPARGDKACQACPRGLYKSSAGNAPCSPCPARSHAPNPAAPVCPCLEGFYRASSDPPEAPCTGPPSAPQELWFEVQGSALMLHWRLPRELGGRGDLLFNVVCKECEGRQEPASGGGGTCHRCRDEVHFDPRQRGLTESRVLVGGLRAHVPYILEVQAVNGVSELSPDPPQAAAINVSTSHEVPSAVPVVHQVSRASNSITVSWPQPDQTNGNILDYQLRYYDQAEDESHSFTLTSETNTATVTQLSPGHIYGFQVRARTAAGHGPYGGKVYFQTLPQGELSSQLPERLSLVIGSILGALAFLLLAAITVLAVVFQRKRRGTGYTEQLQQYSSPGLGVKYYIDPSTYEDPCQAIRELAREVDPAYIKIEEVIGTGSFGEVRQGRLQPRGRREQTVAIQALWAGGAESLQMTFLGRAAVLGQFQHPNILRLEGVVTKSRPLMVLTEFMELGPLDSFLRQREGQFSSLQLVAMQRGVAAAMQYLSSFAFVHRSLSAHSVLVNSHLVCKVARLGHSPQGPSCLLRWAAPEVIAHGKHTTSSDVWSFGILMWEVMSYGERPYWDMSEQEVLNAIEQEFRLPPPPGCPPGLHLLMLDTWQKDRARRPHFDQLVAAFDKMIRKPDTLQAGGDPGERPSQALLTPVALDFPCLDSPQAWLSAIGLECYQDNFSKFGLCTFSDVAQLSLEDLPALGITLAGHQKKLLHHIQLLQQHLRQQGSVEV

Row | Compound | residual activity [1] | Ki ([2]; read-out: Ki) | residual activity [3] | IC50 [4] | residual activity [5] | residual activity [6] | inhibition [7] | residual activity [8] | inhibition [9] | residual activity [10] | residual activity [11] | residual activity [12] | residual activity [13] | inhibition [14] | residual activity [15] | residual activity [16] | residual activity [17] | residual activity [18] | residual activity [19] | inhibition [20] | also measured
1 | CNCc1ccccc1-c1csc([C@H](C)Nc2nc(C)nc3cc(OC)c(OC)cc23)c1 [BAY-294] | 100% | 2080 nM | 100% | > 20000 nM (not active) | 100% | 97% | 24.6% | 99% | 94.7% | 100% | 91% | 98% | 100% | 93.5% | 100% | 90% | 100% | 80% | 100% | 38.2% | Ki ([21]; read-out: Ki): 95.2 nM; Ki ([21]; read-out: pKi (converted)): 91.2 nM; residual activity [22]: 90%; residual activity [23]: 90%; residual activity [24]: 58%; residual activity [25]: 100%; residual activity [26]: 74%; residual activity [27]: 100%; residual activity [28]: 87%; inhibition [29]: 31%; residual activity [30]: 98%; residual activity [31]: 89%; residual activity [32]: 100%
2 | CNCc1ccccc1-c1csc([C@@H](C)Nc2nc(C)nc3cc(OC)c(OC)cc23)c1 [BAY-293] | 96% | 982 nM | 100% | > 20000 nM (not active) | 100% | 80% | 26.7% | 72% | 85.8% | 97% | 92% | 97% | 56% | 91.7% | 99% | 72% | 100% | 78% | 100% | 20% | Ki ([2]; read-out: pKi (converted)): 881 nM; Ki ([21]; read-out: Ki): 131 nM; Ki ([21]; read-out: pKi (converted)): 130 nM; residual activity [22]: 100%; residual activity [23]: 100%; residual activity [24]: 49%; residual activity [25]: 87%; residual activity [26]: 71%; residual activity [27]: 95%; residual activity [28]: 98%; inhibition [29]: 56.7%; residual activity [30]: 88%; residual activity [31]: 85%; residual activity [32]: 76%
